Columns and labels:
[1] = tested on: HCT116-oxaliplatin resistant xenografts; experiment: In vivo survival experiment; parameters: species or system mice
Experimental: Six- to eight-week old female Balb/c mice (weighing about 20 g) were purchased from the Harlan Laboratories, San Pietro al Natisone, Italy. The animals were kept in a pathogen-free environment, and every procedure was done in a laminar airflow cabinet. HCT16-oxaliplatin resistant cells (5×10^5) were injected subcutaneously into the right flank of female Balb/c mice. The animals were treated with IE-8 intraperitoneally (30 mg kg-1; solutions freshly prepared in the standard mixture of 1% DMSO, Cremophor, Ethanol and H2O) on days 10, 13 and 17. The animals were controlled for distress development every day. […] Control and treatment group n=4.

γ-H2AX = γ-H2AX immunofluorescence staining; type: cell-based; details: DU145, 1.2 μM 18 h then 60 μM cisplatin 1 h
Experimental: For Stat3, pStat3 staining, 2.5×10^4 cells/ml were plated on 13-mm glass cover slip (VWR) in 24 well plates, allowed to adhere and processed the next day. Cells were treated with IE-8 for 18 h, and subsequently washed in ice cold PBS and fixed with 2% paraformaldehyde PFA (Alfa Aesar) for 10 min at room temperature, followed by permeabilization with PBS containing 0.5% Triton X-100 for 10 min. Cells were blocked in PBS 5% BSA for 1 h at ambient temperature. Respective proteins were identified by incubation for 4 h with anti-Stat3 and anti-pStat3 rabbit polyclonal antibodies (1:1000, Cell signalling) or anti-phospho-Histone H2A.X mouse monoclonal (1:500; Millipore) diluted in a PBS 1% BSA buffer. Cells were incubated with a secondary fluorescent conjugated antibody Alexa Fluor 488 (1:500; Life Technologies) for 2 h at RT. Nuclei were stained using propidium iodide (2 μg/ml; Sigma-Aldrich) and mounted on glass slides with mounting medium (Dako).
To quantify γ-H2AX foci from images obtained using the protocol above, the program CellProfiler was utilized. Each cell nucleus was identified and the number of foci within computationally counted. The number of foci was taken as an average from the first 30 cells measured with a detection threshold of 0.3.

[2] = tested on: cisplatin-produced DNA interstrand crosslinks; experiment: Modified single cell gel electrophoresis (comet) assay; type: cell-based
Experimental: The following procedure for the modified single-cell gel electrophoresis (comet) assay [Hartley. J. M., et al. Drug-DNA Interact. Protoc. Methods Mol. Biol. 2010, 613, 267] was applied to measure DNA interstrand crosslinking (ICL) induced by platinum drug in DU145 and A549 cells. Exponentially growing cells were treated for 1 h with different concentrations of cisplatin and collected after 0, 9, 24 and 48 h. All procedures were carried out on ice. Cells were diluted to a final concentration of 2.5×10^4 cells/ml and irradiated with X-ray (15 Gy) in order to deliver a fixed number of random DNA strand breaks (except for the untreated unirradiated control). Cells were embedded in 1% agarose on a precoated microscope slide, and each sample was prepared in duplicate. […] Images were captured using an on-line CCD camera and analysed using the Komet Analysis software 4.02 (Andor Technology, Belfast, UK). […] 25 cells were analysed. The tail moment for each image was calculated as the product of the percentage of DNA in the comet tail and the distance between the means of the head and tail distributions (Olive P. L., et al, Radiat Res 122, 86). DNA ICL after drug treatment was expressed as the percentage decrease in tail moment compared with irradiated controls calculated by the formula: % Decrease in tail moment=[1−(TMdi−TMcu/Tci−TMcu)]×100 […]

DU145 cells = experiment: Annexin V/PI apoptosis assay; type: cell-based; details: DU145, 24 h, increasing concentrations
Experimental: Cells were seeded in 24-well plates at densities of 10×10^4 cells/well (A2780-cisplatin resistant) and 1.6×10^4 cells/well (DU145) and allowed to grow at 37° C. overnight prior to treatment. […] At the end of the drug incubations, the supernatant along with the trypsinised cells were collected in falcon tubes and spun for 3 min at 300 g. Cell pellets were resuspended in PBS and transferred to fresh Eppendorf tubes. After a final round of centrifugation, cell pellets were gently resuspended in 150 μl of a Annexin V-FITC labelled solution in binding buffer (2 μl per 150 μl buffer; Binding buffer: 10 mM Hepes/NaOH, pH 7.4, 140 mM NaCl and 2.5 mM CaCl2) and incubated in the dark at 37° C. for 15 min. Cells were subsequently stained with 150 μl of a 200 mg/mL PI-solution and samples were immediately processed with the flow cytometer. […] The data were analysed and presented using the FlowJo software.
Annexin V/Propidium iodide Apoptosis/Cell death was assessed by flow cytometry using the FITC-conjugated annexin V protein (Affymetrix, eBioscience) and propidium iodide double staining. […] Cells were subsequently counterstained with the addition of PI (200 μg/ml) and analysed on a Millipore Guava easyCyte™ 8HT flow cytometer using the InCyte software. The derived data were analysed as dot plots and quantified using the FlowJo software (TreeStar).

Q: COc1cc(/C=C2\CN(c3ccccc3)C/C(=C\c3cc(OC)c(OC)c(OC)c3)C2=O)cc(OC)c1OC [IE-8, 3,5-Di(3,4,5-trimethoxybenzylidene)-1-phenylpiperidin-4-one] was tested. Which body weight loss ([1]; 30 mg/kg intraperitoneally on days 10, 13 and 17) did it give?
A: No body weight loss was observed

Q: What about the “prolongation of survival versus vehicle” value ([1]; 30 mg/kg intraperitoneally on days 10, 13 and 17, n=4) of the same compound?
A: about 20 days

Q: And the “DNA-damage response to cisplatin (γ-H2Ax induction)” value (γ-H2AX)?
A: enhanced

Q: And the “persistence of DNA ICLs in combination treatment” value ([2]; DU145, IE-8 pretreatment then cisplatin 1 h)?
A: up to 48 h

Q: What about the “unhooking (repair) of cisplatin-produced DNA ICLs” value ([2]; DU145 and A549 cells, IE-8 pretreatment overnight or 1 h before cisplatin) of the same compound?
A: impairs the ‘unhooking’ of the cisplatin-produced ICLs

Q: What about the “apoptotic cells (Annexin V/PI)” value (DU145 cells) of the same compound?
A: dose-dependent increase in apoptotic cells

From patent US11964943B2, “3,5-diarylidenyl-n-substituted-piperid-4-one-derived inhibitors of Stat3 pathway activity and uses thereof” (priority 2017, dated 2024)
